Experimental data published in PubChem BioAssay AID1963972 (Molecular Pharmacology Branch, DTP, NCI, 2024).

Test system: 945468-187-T-J2-PDC spheroids viability
Assay: Anticancer human tumor 945468-187-T-J2-PDC patient-derived rectal carcinoma cell line growth inhibition [PI3K]
Conditions: spheroids with HUVEC and MSC; for IC50: curve of first compound; for viability, T/C: stronger effect = lower value
How it was run: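 We assembled tumor spheroids that included a stromal compartment of HUVEC and MSCs, then exposed them to targeted agents alone and together with PI3K pathway inhibitors. Concentration series descended by half-log from clinically achievable Cmax levels. Viability served as the endpoint.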

[1] = second compound 0.0316 µM, first compound 0.0316 µM
[2] = second compound 0.0316 µM, first compound 0.1 µM
[3] = second compound 0.0316 µM, first compound 0.316 µM
[4] = second compound 0.0316 µM, first compound 1 µM
[5] = second compound 0.0316 µM, first compound 3.16 µM
[6] = second compound 0.0316 µM, first compound 10 µM
[7] = second compound 0.1 µM, first compound 0.0316 µM
[8] = second compound 0.1 µM, first compound 0.1 µM
[9] = second compound 0.1 µM, first compound 0.316 µM
[10] = second compound 0.1 µM, first compound 1 µM
[11] = second compound 0.1 µM, first compound 3.16 µM
[12] = second compound 0.1 µM, first compound 10 µM
[13] = second compound 0.316 µM, first compound 0.0316 µM
[14] = second compound 0.316 µM, first compound 0.1 µM
[15] = second compound 0.316 µM, first compound 0.316 µM
[16] = second compound 0.316 µM, first compound 1 µM
[17] = second compound 0.316 µM, first compound 3.16 µM
[18] = second compound 0.316 µM, first compound 10 µM
[19] = second compound 1 µM, first compound 0.0316 µM
[20] = second compound 1 µM, first compound 0.1 µM
[21] = second compound 1 µM, first compound 0.316 µM
[22] = second compound 1 µM, first compound 1 µM
[23] = second compound 1 µM, first compound 3.16 µM
[24] = second compound 1 µM, first compound 10 µM
[25] = second compound 3.16 µM, first compound 0.0316 µM
[26] = second compound 3.16 µM, first compound 0.1 µM
[27] = second compound 3.16 µM, first compound 0.316 µM
[28] = second compound 3.16 µM, first compound 1 µM
[29] = second compound 3.16 µM, first compound 3.16 µM
[30] = second compound 3.16 µM, first compound 10 µM
[31] = second compound 10 µM, first compound 0.0316 µM
[32] = second compound 10 µM, first compound 0.1 µM
[33] = second compound 10 µM, first compound 0.316 µM
[34] = second compound 10 µM, first compound 1 µM
[35] = second compound 10 µM, first compound 3.16 µM
[36] = second compound 10 µM, first compound 10 µM
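Also: spheroids exposed to compounds for seven days before reading.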

Q: With `CC1(C)CCC(CN2CCN(c3ccc(C(=O)NS(=O)(=O)c4ccc(NCC5CCOCC5)c([N+](=O)[O-])c4)c(Oc4cnc5[nH]ccc5c4)c3)CC2)=C(c2ccc(Cl)cc2)C1` + Cc1nc(NC(=O)N2CCCC2C(N)=O)sc1-c1ccnc(C(C)(C)C(F)(F)F)c1 as the compound, how does the IC50 (second compound 0.0316 µM) read?
A: The IC50 was > 10 µM.

Q: What about the IC50 (second compound 0.1 µM) of the same compound?
A: Its IC50 is > 10 µM.

Q: And the IC50 (second compound 0.316 µM)?
A: The IC50 was > 10 µM.

Q: And the IC50 (second compound 1 µM)?
A: Its IC50 is > 10 µM.

Q: And the IC50 (second compound 3.16 µM)?
A: Its IC50 is > 10 µM.

Q: And the IC50 (second compound 10 µM)?
A: Its IC50 is > 10 µM.

Q: And the viability, T/C [1]?
A: The viability, T/C was 101%.

Q: And the viability, T/C [2]?
A: Its viability, T/C is 99.6%.

Q: And the viability, T/C [3]?
A: Its viability, T/C is 121%.

Q: And the viability, T/C [4]?
A: Its viability, T/C is 103%.

Q: What about the viability, T/C [5] of the same compound?
A: The viability, T/C was 98.7%.

Q: And the viability, T/C [6]?
A: Its viability, T/C is 61.4%.

Q: What about the viability, T/C [7] of the same compound?
A: The viability, T/C was 118%.

Q: And the viability, T/C [8]?
A: Its viability, T/C is 97.5%.

Q: And the viability, T/C [9]?
A: The viability, T/C was 116%.

Q: What about the viability, T/C [10] of the same compound?
A: The viability, T/C was 99.5%.

Q: What about the viability, T/C [11] of the same compound?
A: Its viability, T/C is 110%.

Q: And the viability, T/C [12]?
A: The viability, T/C was 66.2%.

Q: And the viability, T/C [13]?
A: Its viability, T/C is 113%.

Q: And the viability, T/C [14]?
A: The viability, T/C was 83.7%.

Q: What about the viability, T/C [15] of the same compound?
A: The viability, T/C was 108%.

Q: And the viability, T/C [16]?
A: Its viability, T/C is 91.7%.

Q: And the viability, T/C [17]?
A: Its viability, T/C is 80.2%.

Q: And the viability, T/C [18]?
A: The viability, T/C was 66.6%.

Q: And the viability, T/C [19]?
A: Its viability, T/C is 102%.

Q: What about the viability, T/C [20] of the same compound?
A: The viability, T/C was 102%.

Q: And the viability, T/C [21]?
A: Its viability, T/C is 82.3%.

Q: And the viability, T/C [22]?
A: Its viability, T/C is 102%.

Q: What about the viability, T/C [23] of the same compound?
A: Its viability, T/C is 100%.

Q: What about the viability, T/C [24] of the same compound?
A: The viability, T/C was 71.5%.

Q: And the viability, T/C [25]?
A: The viability, T/C was 81.4%.

Q: What about the viability, T/C [26] of the same compound?
A: Its viability, T/C is 91%.

Q: And the viability, T/C [27]?
A: Its viability, T/C is 72.6%.

Q: And the viability, T/C [28]?
A: The viability, T/C was 81.2%.

Q: And the viability, T/C [29]?
A: The viability, T/C was 93.8%.

Q: And the viability, T/C [30]?
A: Its viability, T/C is 59%.

Q: What about the viability, T/C [31] of the same compound?
A: Its viability, T/C is 83.3%.

Q: What about the viability, T/C [32] of the same compound?
A: Its viability, T/C is 76.8%.

Q: What about the viability, T/C [33] of the same compound?
A: Its viability, T/C is 69.8%.

Q: And the viability, T/C [34]?
A: The viability, T/C was 71.5%.

Q: What about the viability, T/C [35] of the same compound?
A: The viability, T/C was 75.5%.

Q: What about the viability, T/C [36] of the same compound?
A: Its viability, T/C is 63.7%.

Q: With `C[C@@H](NC(=O)c1ncnc(N)c1Cl)c1ncc(C(=O)Nc2cc(C(F)(F)F)c(Cl)cn2)s1` + Cc1nc(NC(=O)N2CCCC2C(N)=O)sc1-c1ccnc(C(C)(C)C(F)(F)F)c1 as the compound, how does the IC50 (second compound 0.0316 µM) read?
A: Its IC50 is > 10 µM.

Q: And the IC50 (second compound 0.1 µM)?
A: Its IC50 is > 10 µM.

Q: What about the IC50 (second compound 0.316 µM) of the same compound?
A: Its IC50 is > 10 µM.

Q: What about the IC50 (second compound 1 µM) of the same compound?
A: Its IC50 is > 10 µM.

Q: What about the IC50 (second compound 3.16 µM) of the same compound?
A: Its IC50 is > 10 µM.

Q: And the IC50 (second compound 10 µM)?
A: The IC50 was > 10 µM.

Q: And the viability, T/C [1]?
A: The viability, T/C was 94.3%.

Q: What about the viability, T/C [2] of the same compound?
A: Its viability, T/C is 92.5%.

Q: What about the viability, T/C [3] of the same compound?
A: The viability, T/C was 77.2%.

Q: And the viability, T/C [4]?
A: The viability, T/C was 91.5%.

Q: What about the viability, T/C [5] of the same compound?
A: Its viability, T/C is 96.2%.

Q: What about the viability, T/C [6] of the same compound?
A: Its viability, T/C is 69.2%.

Q: And the viability, T/C [7]?
A: The viability, T/C was 100%.

Q: What about the viability, T/C [8] of the same compound?
A: Its viability, T/C is 80.3%.

Q: And the viability, T/C [9]?
A: Its viability, T/C is 95.8%.

Q: And the viability, T/C [10]?
A: Its viability, T/C is 77.4%.

Q: What about the viability, T/C [11] of the same compound?
A: The viability, T/C was 105%.

Q: And the viability, T/C [12]?
A: Its viability, T/C is 93.7%.

Q: And the viability, T/C [13]?
A: Its viability, T/C is 99.8%.

Q: And the viability, T/C [14]?
A: The viability, T/C was 82.9%.

Q: And the viability, T/C [15]?
A: The viability, T/C was 123%.

Q: And the viability, T/C [16]?
A: Its viability, T/C is 93.4%.

Q: What about the viability, T/C [17] of the same compound?
A: The viability, T/C was 87%.

Q: What about the viability, T/C [18] of the same compound?
A: The viability, T/C was 85%.

Q: And the viability, T/C [19]?
A: The viability, T/C was 91.4%.

Q: And the viability, T/C [20]?
A: Its viability, T/C is 102%.

Q: What about the viability, T/C [21] of the same compound?
A: Its viability, T/C is 99%.

Q: What about the viability, T/C [22] of the same compound?
A: The viability, T/C was 102%.

Q: And the viability, T/C [23]?
A: Its viability, T/C is 81.1%.

Q: What about the viability, T/C [24] of the same compound?
A: The viability, T/C was 86.1%.

Q: And the viability, T/C [25]?
A: The viability, T/C was 90.8%.

Q: And the viability, T/C [26]?
A: Its viability, T/C is 91.5%.

Q: And the viability, T/C [27]?
A: Its viability, T/C is 92.4%.

Q: What about the viability, T/C [28] of the same compound?
A: Its viability, T/C is 89%.

Q: And the viability, T/C [29]?
A: The viability, T/C was 89.5%.

Q: And the viability, T/C [30]?
A: The viability, T/C was 83%.

Q: And the viability, T/C [31]?
A: The viability, T/C was 76.3%.

Q: And the viability, T/C [32]?
A: The viability, T/C was 70.1%.

Q: What about the viability, T/C [33] of the same compound?
A: The viability, T/C was 85.7%.

Q: And the viability, T/C [34]?
A: Its viability, T/C is 68.7%.

Q: What about the viability, T/C [35] of the same compound?
A: Its viability, T/C is 72.2%.

Q: What about the viability, T/C [36] of the same compound?
A: The viability, T/C was 80.2%.
